Measurements from PMC5090206, “Fluselenamyl: A Novel Benzoselenazole Derivative for PET Detection of Amyloid Plaques (Aβ) in Alzheimer’s Disease” (Scientific Reports, 2016).
pKd: −log10 of the molar value.

Columns and labels:
AD homogenates = AD homogenates (Homo sapiens, UniProt P05067); test: Saturation binding of [18F]-9 with AD homogenates
Protocol: For assessing the ability of [^18F]-9 to bind Aβ plaques; binding assays with either AD homogenates or preformed Aβ1–42 aggregates were performed in 30 mM Tris, pH 7.4 buffer supplemented with 0.1% BSA[39]. Nonspecific binding was determined in the presence of 5 (1 μM) as a competitor.
Scientific Reports Version of August 4, 2016 other neurodegenerative diseases (SI, Figure 4A & 4B). Sections were visualized, processed, and analyzed using a Pascal confocal microscope.
Preparation of Human Brain Homogenates.
Well-established literature procedures were used for preparation of AD homogenates. 11,12 Grey matter was isolated from frozen postmortem frontal cortex tissue by dissection with a scalpel. […]
Binding assays were performed using previously described methods.11 Briefly, a fixed concentration (0.25 µM/well) of Aβ1–42 fibrils was incubated for 1 h at 37 °C with increasing concentrations of [18F]-9 (0.1 nM-15 nM) in 30 mM Tris-HCl pH 7.4, 0.1% BSA in a reaction volume of 150 µl. […] The exact hot:cold ([18F]-9 : 5) ratio was measured in each experiment by counting an aliquot of a sample (2 µl) of the radioligand preparation in a scintillation counter. Binding of [18F]-9 to human brain homogenates was assessed by incubating samples of insoluble fraction (1.25 µg insoluble protein/well) from AD subjects, with increasing concentrations of [18F]-9 (0.1nM-18 nM) for 1 h at 37 °C. Nonspecific binding was determined in parallel experiments in the presence of 5 (1 µM) as a competitor. […] Glass fiber filters containing the bound ligand were mixed with Optiphase Supermix scintillation cocktail (150µl; PerkinElmer) and counted immediately.
All data were obtained in triplicate and analyzed by curve fitting to a one-site binding model using nonlinear regression employing Graphpad Prism software (version 4.0) to determine Kd and Bmax values.
Bmax values were calculated in pmol/gram wet weight of brain tissue. […]

Lipophilicity (log P) = type: physicochemical; details: octanol/water
Aβ plaques = Aβ plaques (Homo sapiens, UniProt P05067); test: Histochemical staining of mouse brain hippocampus sections; set-up: species or system mice; details: 10 months old
Text: Aβ imaging ligands and disease-modifying therapeutics have been investigated using APP^+/−/PS1^+/− transgenic mice models. Further, we assessed the ability of 5 to stain ex vivo brain sections (50 μm) of age-matched APP^+/−/PS1^+/− mice and their WT (BL/6) counterparts, using established procedures. As a positive control, anti-Aβ monoclonal antibody (mHJ3.4 conjugated to Alexa Fluor 568) was used[34]. […] By comparison, 5 indicated no staining in 10 months old WT mice (SI, Fig. 3) thus indicating its target specificity.
Scientific Reports Version of August 4, 2016
µm) were cut in the coronal plane on a freezing sliding microtome and stored at -20°C. 7,8 Tissue was stained as free-floating sections. Prior to staining, tissue sections were permeabilized with PBS-Tritron-X-100 (0.25%) for 30 minutes, and then blocked with 1% non-fat dry milk in PBS-Ttiton-X-100 for 60 minutes.
Hippocampus tissue sections of APP+/-/PS1+/- and age-matched control BL/6 (WT, SI Figure 3) were incubated with fluorescent molecule 5 (100 nM dissolved in 1% ethanol in PBS) for 60 minutes, and washed 3-times with PBS-Triton-X-100.9 Thereafter, tissue sections were incubated with mouse-anti-Aβ (mHJ3.4) 7 that was directly conjugated to Alexa 568 for 90 minutes and washed 3-times with PBS-Triton-X-100. […]

Sequence of AD homogenates (P05067 672-711 limits assumed): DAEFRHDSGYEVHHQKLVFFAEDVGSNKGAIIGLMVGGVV
Sequence of Aβ plaques (P05067 672-711 limits assumed): as above

Row | Compound | Bmax (AD homogenates) | binding affinity higher than approved FDA tracers (AD homogenates) | pKd (AD homogenates; 30 mM Tris pH 7.4, 0.1% BSA, one-site model) | logP (Lipophilicity (log P)) | staining of Aβ plaques in hippocampus brain sections (Aβ plaques; 100 nM, APP+/−/PS1+/− mice) | staining of brain sections (Aβ plaques; WT mice)
1 | CN(C)c1ncc(/C=C\c2nc3cc(OCC[18F])ccc3[se]2)cn1 [[^18F]-9] | 546 pmol/g wet wt. | 2–10 fold | 8.77 | 1.28 | – | –
2 | CN(C)c1ncc(/C=C\c2nc3cc(OCCF)ccc3[se]2)cn1 [compound 5, (Z)-5-(2-(5-(2-fluoroethoxy)benzo[d][1,3]selenazol-2-yl)vinyl)-N,N-dimethylpyrimidin-2-amine] | – | – | – | – | abundant staining of Aβ plaques | no staining
